Experimental data from patent publication US5760001A, “Cytokine restraining agents and methods of use in pathologies and conditions associated with altered cytokine levels” (Trega Biosciences, Inc., priority 1995, dated 1998).

Legend:
Type in all cases: in vivo
[1] = tested on: Male Harlan Sprague-Dawley rats; assay: Adult respiratory distress syndrome: LPS-induced PMN count in broncho-alveolar lavage fluid; conditions: 100 μg/kg IP at 0, 2 and 4 hr; intratracheal LPS 5 mg/kg; lavage at 6 hr
Experimental: These experiments were performed using a modification of the methods described by Ulich et al., Am. J. Pathol. 141:61-68 (1992) and by Wheelden et al., Lab. Animals 26:29-37 (1992), each of which is incorporated herein by reference. Male Harlan Sprague-Dawley rats were anesthetized using a mixture of 70 mg/kg ketamine and 6 mg/kg rompun injected IP. A 2-3 cm incision was made in the neck of each anesthetized rat and its trachea was exposed by blunt dissection of the surrounding soft tissue. The rats were suspended on a near vertical slab and intratracheal injections were performed by inserting into the exposed trachea, at a point 1 cm posterior to the larynx, a 25G×1/2 inch needle attached to a 1 cc syringe.
Each rat received 0.5 ml/kg of saline or 0.5 ml/kg of 10 mg/ml (5 mg/kg) LPS endotoxin via slow intratracheal administration. Immediately following administration of the LPS endotoxin, rats were injected IP with 1 ml/kg of either saline (control) or saline containing various concentrations of EX-2 (treated). The rats were maintained in the elevated position for 1-2 min to facilitate distribution of the LPS and saline into the lung. The incisions were closed and the rats were allowed to recover. […]
The total polymorphonuclear leukocytes (PMN; neutrophils) in the broncho-alveolar lavage fluid were counted in the EX-2-treated rats and compared with the number in the control rats.

[2] = tested on: Adult male Sprague-Dawley rats; assay: Disuse deconditioning (tail suspension) in rats; conditions: 1 or 5 μg/kg IP twice daily
Experimental: Adult male Sprague-Dawley rats (355-365 g) were used in this study. Animals were housed individually in standard rat cages and were acclimated on a treadmill for 4 days. The next day, a baseline tail bleed was performed, followed by a maximal treadmill stress test the day after. The day following the stress test, the animals were divided into the appropriate treatment and control groups and the animals were suspended by their tails in suspension cages, which simulates weightlessness and, therefore, deconditions the animals. Another group of control animals was placed in standard rat cages with grated flooring similar to that utilized in the suspension cages. All animals were housed one per cage and supplied with food and water ad libitum. Body weights and food consumptions were measured daily Animals received twice daily IP injections of 1 μg/kg or 5 μg/kg body weight of EX-2 (treated), or 1 ml/kg body weight of saline (control). On day 10, all animals were stress tested on the treadmill until they reached exhaustion. Data on maximum VO2 and running time were collected and compared to pre-suspension results. On day 14, all animals were sacrificed, and blood, tissues, and organs were collected for further analysis. All procedures and tests were performed blind to avoid researcher subjectivity. Statistical significance (p<0.05) between groups was evaluated by ANOVA with Student-Newman-Keuls test for multiple comparisons. All data are reported as the mean±standard error (SE).
All of the animals were subjected to the stress tests, which measured exercise time and maximal VO2. As well, levels of the oxidative enzyme soleus citrate synthase and tibia bone density were measured.
Soleus citrate synthase was attenuated by 50%.

adult female Balb/c mice = assay: LPS-induced lethality (IP dosing); conditions: 11 × 300 μg/mouse IP (3.3 mg), every 4 hr; 0.6 mg LPS; vs control mice
Experimental: These experiments were performed based on information reported by Rivier et al., Endocrinology 125:2800-2805 (1989), which is incorporated herein by reference. Adult female Balb/c mice were provided food and water ad libitum. Mice were injected IP every four hr for 40 hr with 30 to 300 μg EX-2, EX-3 or EX-4 in 0.2 ml saline (treated group) or with 0.2 ml saline, alone (control group) (10 mice per group). Immediately following the first injection, 0.6 mg LPS endotoxin in 0.2 ml saline was administered to each mouse. Following LPS injection, EX-2 or saline was administered to the treated mice or the control mice, respectively, every 4 hr for 36 hr.

male Sprague-Dawley rats = assay: Cyclosporine-induced nephrotoxicity; conditions: for extracellular fluid volumes (ECF): second study, control 27.6±1.9, CsA and vehicle 27.5±1.7
Experimental: In the first study, male Sprague-Dawley rats (n=43) with a weight range of 240-290 g at the initiation of the cyclosporine A (CsA) treatment were divided into 4 weight matched groups. The groups were as follows: (1) Control: no CsA, no EX-2, treatment only with CsA vehicle (PBS) PO and EX-2 vehicle (also PBS) IP; (2) CsA: treatment with CsA (50 mg/kg in PBS administered PO daily at 0830 hr for 9 days) and IP injections of PBS (Ex-2 vehicle); (3) CsA and 50 μg: CsA treatment identical to group 2 with the addition of EX-2 (50 μg/kg IP administered daily at 0800 and 1700 hr in EX-2 vehicle); and (4) CsA and 500 μg: CsA treatment identical to groups 2 and 3, and EX-2 treatment protocol similar to group 3 except that the dose of EX-2 was 500 μg/kg BW. After deep anesthesia was assured, the rats were cannulated in the trachea (PE 240) jugular vein, femoral artery, and bladder (PE 50 for the previous 3 cannulations).After cannulation, infusion of ^3 H-inulin was initiated 50 min prior to the measurement period to assess glomerular filtration rate, renal blood flow and plasma flow. Renal blood flow was determined by the inulin extraction technique. At the end of the study, the kidneys were removed for histological analysis.
In the second study, male Sprague-Dawley rats (n=31) with a weight range of 240-290 g at the time of initiation of the cyclosporine treatment were divided into 4 weight-matched groups. The time course and protocol of this study matched the first study with the following exceptions: (1) The daily dose of CsA was reduced to 30 mg/kg and was administered subcutaneously (SC) and (2) the 50 μ/kg dose of EX-2 was substituted with a twice daily dose of 200 μg/kg. The 500 μg/kg dose of EX-2 was repeated in this study. Renal hemodynamics were determined and extracellular fluid volumes were also assessed.
In the second studio, where extracellular fluid volumes (ECF) were measured, there were no differences in ECF among control and treatment groups (27.6±1.9 in control, 27.5±1.7 in CsA and vehicle, 26.2±0.9 in CsA+200 μg/kg EX-2, and 25.7±1.4% in CsA+500 μg/kg EX-2).
The results from the two experiments are shown in FIGS. 1a and 1b and provide evidence that a cytokine restraining peptide of the present invention reduces cyclosporine-induced nephrotoxicity and the damage caused thereby.

For “Ac-Nle-Gln-His-(D)Phe-Arg-(D)Trp-Gly-NH2 [EX-2]”, the “Reduction in LPS-induced PMN Count” value [1] was 58%, the “Soleus Citrate Synthase, % Attenuation of suspension-induced decrease” value ([2]; 14 days suspension) was 50% and the “Tibia Bone Density, % Attenuation of suspension-induced decrease” value ([2]; 14 days suspension) was 50%. For the same substance, the “Exercise Time, % Attenuation of suspension-induced decrease” value ([2]; treadmill stress test day 10) was 44%, the “Maximal VO2, % Attenuation of suspension-induced decrease” value ([2]; treadmill stress test day 10) was 80% and the “Inhibition of LPS-induced Lethality (increase in survival)” value (adult female Balb/c mice) was 83%. For the same substance, the “changes in ECF as a result of treatment” value (male Sprague-Dawley rats; CsA-treated rats) was “no changes”, the renal blood flow (male Sprague-Dawley rats; CsA-treated rats) was “not different from control” and the “urinary protein excretion compared to CsA-treated rats” value (male Sprague-Dawley rats; CsA-treated rats) was “did not increase”. For the same substance, the “urinary protein excretion normalized to glomerular filtration rate” value (male Sprague-Dawley rats; CsA-treated rats) was “trend to decreased”, the “GFR compared to CsA and vehicle controls” value (male Sprague-Dawley rats; both studies, CsA-treated rats) was “significantly increased” and the “extracellular fluid volumes (ECF)” value (male Sprague-Dawley rats; CsA 30 mg/kg SC + 200 μg/kg EX-2 twice daily) was 26.2±0.9%. The “extracellular fluid volumes (ECF)” value (male Sprague-Dawley rats; CsA 30 mg/kg SC + 500 μg/kg EX-2 twice daily) was 25.7±1.4%.
